Assay [1] concerns the target T1, L-arginine deiminase (ADI) from Penicillium chrysogenum.
T1 construct: single 49 kDa band on SDS-PAGE
The assay can be described thus: ammonia release, Nessler's reagent, […] nm; residual activity at […]. The format is biochemical.

The subject of assay [2] is T1, L-arginine deiminase (ADI) from Penicillium chrysogenum. The assay can be described thus: ammonia release, Nessler's reagent, […] nm; Eadie-Hofstee plot. The settings on record: 40 °C, 30 min; phosphate buffer pH 7.5 in the standard assay. The format is biochemical.
Setting [3] is: chelator in the reaction mixture, L-arginine as substrate, 40 °C.

In the case of `O=C(O)CN(CCN(CC(=O)O)CC(=O)O)CC(=O)O` [EDTA], the IC50 in assay [1] (setting [3]) stood at 5.19 mM.

Turning to `N=C(N)NCCC[C@H](N)C(=O)O` [L-arginine], the Km in assay [2] was 750 µM. In assay [1] (covalent, tyrosyl modifier, 150 mM phosphate pH 7.5, 37 °C, 20 min), `CC(=O)n1ccnc1` [N-acetyl-imidazole] came in with an IC50 of 5.4 mM. As to `O=C1CCC(=O)N1Br` [N-bromosuccinimide], in assay [1] (covalent, tryptophanyl modifier, 1 h in 150 mM phosphate pH 7.5, then dialysed before assay), the midpoint of inhibition, the IC50, lay at 5 mM. Turning to `CCN1C(=O)C=CC1=O` [N-ethylmaleimide], it took 4.95 mM to reach half-maximal inhibition in assay [1] (covalent, sulfhydryl modifier, pre-incubated 1 h at 25 °C, 100 mM Tris-HCl pH 5.0, 1 mM EDTA) (IC50). Turning to `CC(=O)C(C)=O` [butanedione], in assay [1] (covalent, arginyl modifier, 50 mM sodium borate pH 7.0, room temperature), 4.66 mM corresponded to half-maximal inhibition (IC50). `CN(C)c1cccc2c(S(=O)(=O)Cl)cccc12` [dansyl chloride] registered an IC50 in assay [1] (covalent, lysyl modifier, 100 mM Tris-HCl pH 7.0, 4 °C, 1 h) of 6.48 mM. The molecule `CCOC(=O)OC(=O)OCC` [diethylpyrocarbonate] showed a half-inhibitory concentration (IC50) in assay [1] (covalent, histidyl modifier, assay buffer, 25 °C, 5 min) of 6.44 mM. Consider `c1cnc2c(c1)ccc1cccnc12` [o-phenanthroline], for which, in assay [1] (setting [3]), the IC50 came to 4.79 mM.

As for `c1ccc(-c2ccccn2)nc1` [α,α-dipyridyl], in assay [1] (setting [3]), the IC50 stood at 7.46 mM.

As usually defined, the IC50 is the concentration needed to halve the response being measured. What is called Km is the substrate concentration at which the rate is half of its maximum.

These data come from article PMC10829382, “Purification and characterization of L-arginine deiminase from Penicillium chrysogenum” (BMC Microbiology, 2024).
